US20230100838A1 (Revolution Medicines, Inc., priority 2019, published 2023)

Legend:
[1] = target: T1, GDP-loaded K-Ras (1-169) G12D, C51S, C80L, C118S (Homo sapiens, UniProt P01116, C118S/C51S/C80L/G12D); test: K-Ras G12D(GDP) cross-linking assay (conjugate formation, TOF mass spectrometry); assay type: binding; set-up: key: 0: No observed x-linking; +: 0 < x ≤ 20; ++: 20 < x ≤ 40; +++: 40 < x ≤ 100; conditions: Table 5; percent covalently modified K-Ras by MS; room temperature; typical compound conc. 2, 10, 25 μM, endpoints 1 and 24 h
T1 construct: GDP-loaded K-Ras (1-169) G12D, C51S, C80L, C118S
Procedure: (§1) Protocol: K-Ras G12D(GDP) Cross-Linking Assay
(§2) Note: while the following protocol outlines the procedure for K-Ras G12D(GDP), a person of skill in the art may substitute other Ras proteins, and may also substitute a non-hydrolyzable GTP analog for GDP to study GTP bound Ras protein.
(§3) GDP-loaded K-Ras (1-169) G12D, C51S, C80L, C118S and GDP-loaded K-Ras (1-169) C51S, C80L, C118S were adjusted to 50 μM in K-Ras assay buffer (12.5 mM HEPES, 75 mM NaCl and 1 mM MgCl2 at pH 7.4). A 5 μL aliquot of each protein solution was added to each well of a 96-well microplate containing 40 μL of assay buffer. Initial compound stocks were prepared in DMSO at 100 times their final assay concentration. Compounds were then diluted 10-fold into K-Ras assay buffer to 10 times their final concentration. A 5 μL aliquot of each diluted compound solution was added to each protein solution in the 96-well microplate to initiate the reaction, which then proceeded at room temperature. Typical final compound concentrations were 2, 10, and 25 μM. At each time point, the reactions were analyzed immediately or quenched with 5 μL of a 5% formic acid solution and kept at 4° C. until analysis. Typical assay endpoints were 1 and 24 h.
(§4) Data collection took place on an Agilent 6230 TOF Mass Spectrometer. Complete reactions were injected onto a C4 reverse-phase column to separate protein from buffer components prior to entering the mass spectrometer. The proteins were eluted from the column by increasing acetonitrile fraction in the mobile phase and fed directly into the mass analyzer. Initial analysis of raw data took place in Agilent MassHunter BioConfirm software and consisted of deconvolution of multiple protein charge states with the maximum entropy algorithm, with a mass step of 1 Da. The heights of all deconvoluted protein masses were exported for further data analysis. The percent modification of each protein was then determined by calculating the peak height of the covalently modified K-Ras species as a percentage of the sum total of K-Ras protein peak height.

[2] = target: T2, GDP-loaded K-Ras (1-169) C51S, C80L, C118S (Homo sapiens, UniProt P01116, C118S/C51S/C80L); test: K-Ras WT (GDP) cross-linking assay (conjugate formation, TOF mass spectrometry); assay type: binding; set-up: key: 0: No observed x-linking; +: 0 < x ≤ 20; ++: 20 < x ≤ 40; +++: 40 < x ≤ 100; conditions: Table 5; percent covalently modified K-Ras by MS; room temperature; typical compound conc. 2, 10, 25 μM, endpoints 1 and 24 h
T2 construct: GDP-loaded K-Ras (1-169) C51S, C80L, C118S
Procedure: as §1, §2, §3, §4

| SMILES | G12D x-linking (%) [1] | WT x-linking (%) [2] |
| --- | --- | --- |
| O=C([C@H]1CN1)N1CCN2c3ncnc4cc(-c5c(O)cccc5F)c(Cl)c(c34)OC[C@@H]2C1 [Example 120, ((R)-aziridin-2-yl)((8aS)-6-chloro-5-(2-fluoro-6-hydroxyphenyl)-8a,9,11,12-tetrahydropyrazino[2′,1′:3,4][1,4]oxazepino[5,6,7-de]quinazolin-10(8H)-yl)methanone] | 0 | 0 |
| COC1CC1N=C=NC1CCN(c2nc(OC[C@@H]3CCCN3C)nc3c2CCN(c2cccc4cccc(C)c24)C3)CC1 (stereo partly shown) [Example 151] | +++ (40 < x ≤ 100) | + (0 < x ≤ 20) |
| Cc1cccc2cccc(N3CCc4c(nc(OC[C@@H]5CCCN5C)nc4N4CC[C@H](NC(=O)[C@@H]5CN5)[C@@H](CC#N)C4)C3)c12 [Example 127] | + (0 < x ≤ 20) | + (0 < x ≤ 20) |
| CO[C@@H]1CCCC[C@H]1N=C=NC1CCN(c2nc(OC[C@@H]3CCCN3C)nc3c2CCN(c2cccc4cccc(C)c24)C3)CC1 [Example 147] | + (0 < x ≤ 20) | + (0 < x ≤ 20) |
| COCCN=C=N[C@H]1CCN(c2nc(OC[C@@H]3CCCN3C)nc3c2CCN(c2cccc4cccc(C)c24)C3)C[C@@H]1CC#N [Example 76, 2-((3S,4S)-4-((((2-methoxyethyl)imino)methylene)amino)-1-(7-(8-methylnaphthalen-1-yl)-2-(((S)-1-methylpyrrolidin-2-yl)methoxy)-5,6,7,8-tetrahydropyrido[3,4-d]pyrimidin-4-yl)piperidin-3-yl)acetonitrile] | +++ (40 < x ≤ 100) | ++ (20 < x ≤ 100) |
| Cc1ccc2[nH]ncc2c1N1CCc2c(nc(OC[C@@H]3CCCN3C)nc2N2CCN(C(=O)[C@@H]3CN3)[C@@H](CC#N)C2)C1 [Example 111, 2-((S)-1-((S)-aziridine-2-carbonyl)-4-(7-(5-methyl-1H-indazol-4-yl)-2-(((S)-1-methylpyrrolidin-2-yl)methoxy)-5,6,7,8-tetrahydropyrido[3,4-d]pyrimidin-4-yl)piperazin-2-yl)acetonitrile] | + (0 < x ≤ 20) | 0 |
| Cc1cccc2cccc(N3CCc4c(nc(OC[C@@H]5CCCN5C)nc4N4CCN(C(=O)[C@H]5CN5Cc5ccccc5)[C@@H](CC#N)C4)C3)c12 (stereo partly drawn) [Example 96, 2-((S)-1-((R)-1-benzylaziridine-2-carbonyl)-4-(7-(8-methylnaphthalen-1-yl)-2-(((S)-1-methylpyrrolidin-2-yl)methoxy)-5,6,7,8-tetrahydropyrido[3,4-d]pyrimidin-4-yl)piperazin-2-yl)acetonitrile] | + (0 < x ≤ 20) | + (0 < x ≤ 20) |
| COc1ccccc1CN=C=N[C@@H]1CCN(c2nc(OC[C@@H]3CCCN3C)nc3c2CCN(c2cccc4cccc(C)c24)C3)C[C@@H]1CC#N [Example 102, 2-((3S,4R)-4-((((2-methoxybenzyl)imino)methylene)amino)-1-(7-(8-methylnaphthalen-1-yl)-2-(((S)-1-methylpyrrolidin-2-yl)methoxy)-5,6,7,8-tetrahydropyrido[3,4-d]pyrimidin-4-yl)piperidin-3-yl)acetonitrile] | + (0 < x ≤ 20) | + (0 < x ≤ 20) |
| CC(=O)N1C[C@@H]1CN1CCN(c2nc(OC[C@@H]3CCCN3C)nc3c2CCN(c2cccc4cccc(C)c24)C3)C[C@@H]1CC#N [Example 119, 2-((S)-1-(((S)-1-acetylaziridin-2-yl)methyl)-4-(7-(8-methylnaphthalen-1-yl)-2-(((S)-1-methylpyrrolidin-2-yl)methoxy)-5,6,7,8-tetrahydropyrido[3,4-d]pyrimidin-4-yl)piperazin-2-yl)acetonitrile] | + (0 < x ≤ 20) | + (0 < x ≤ 20) |
| CO[C@H]1CCC[C@H]1N=C=NC1CCN(c2nc(OC[C@@H]3CCCN3C)nc3c2CCN(c2cccc4cccc(C)c24)C3)CC1 (single isomer, unassigned) [Example 150] | + (0 < x ≤ 20) | + (0 < x ≤ 20) |
| COCCN1C[C@H]1C(=O)N1CCN(c2nc(OC[C@@H]3CCCN3C)nc3c2CCN(c2cccc4cccc(C)c24)C3)C[C@@H]1CC#N (stereo partly drawn) [Example 106, 2-((S)-1-((S)-1-(2-methoxyethyl)aziridine-2-carbonyl)-4-(7-(8-methylnaphthalen-1-yl)-2-(((S)-1-methylpyrrolidin-2-yl)methoxy)-5,6,7,8-tetrahydropyrido[3,4-d]pyrimidin-4-yl)piperazin-2-yl)acetonitrile] | + (0 < x ≤ 20) | + (0 < x ≤ 20) |
| CO[C@H]1CCCC[C@H]1N=C=NC1CCN(c2nc(OC[C@@H]3CCCN3C)nc3c2CCN(c2cccc4cccc(C)c24)C3)CC1 [Example 148] | + (0 < x ≤ 20) | + (0 < x ≤ 20) |
| CC(=O)N1C[C@H]1C(=O)N1CCN(c2nc(OC[C@@H]3CCCN3C)nc3c2CCN(c2cccc4cccc(C)c24)C3)C[C@@H]1CC#N [Example 99, 2-((S)-1-((S)-1-acetylaziridine-2-carbonyl)-4-(7-(8-methylnaphthaien-1-yl)-2-(((S)-1-methylpyrrolidin-2-yl)methoxy)-5,6,7,8-tetrahydropyrido[3,4-d]pyrimidin-4-yl)piperazin-2-yl)acetonitrile] | + (0 < x ≤ 20) | + (0 < x ≤ 20) |
| CO[C@@H]1CCC[C@@H]1N=C=NC1CCN(c2nc(OC[C@@H]3CCCN3C)nc3c2CCN(c2cccc4cccc(C)c24)C3)CC1 (single isomer, unassigned) [Example 149] | ++ (20 < x ≤ 40) | + (0 < x ≤ 20) |
| CC(=O)N1C[C@@H]1C(=O)N1CCN(c2nc(OC[C@@H]3CCCN3C)nc3c2CCN(c2cccc4cccc(C)c24)C3)C[C@@H]1CC#N [Example 98, 2-((S)-1-((R)-1-acetylaziridine-2-carbonyl)-4-(7-(8-methylnaphthalen-1-yl)-2-(((S)-1-methylpyrrolidin-2-yl)methoxy)-5,6,7,8-tetrahydropyrido[3,4-d]pyrimidin-4-yl)piperazin-2-yl)acetonitrile] | + (0 < x ≤ 20) | 0 |
| Cc1ccc2[nH]ncc2c1-c1cc2ncnc3c2c(c1Cl)OCC[C@@H]1CN(C(=O)[C@@H]2CN2)CCN31 [Example 123] | 0 | 0 |
| Cc1ccnc(C(C)C)c1-n1c(=O)nc(N2C[C@H](C)N(C(=O)[C@@H]3CN3)C[C@H]2C)c2cc(F)c(-c3c(O)cccc3F)nc21 [Example 144] | 0 | 0 |
| Cc1ccnc(C(C)C)c1-n1c(=O)nc(N2[C@H](C)CN(C(=O)[C@H]3CN3)C[C@@H]2C)c2cc(F)c(-c3c(O)cccc3F)nc21 [Example 135] | 0 | 0 |
| Cc1cccc2cccc(N3CCc4c(nc(OC[C@@H]5CCCN5C)nc4N4CC[C@@H](NC(=O)[C@H]5CN5)[C@@H](CC#N)C4)C3)c12 [Example 125] | + (0 < x ≤ 20) | + (0 < x ≤ 20) |
| Cc1cccc2cccc(N3CCc4c(nc(OC[C@@H]5CCCN5C)nc4N4CCN(C(=O)[C@H]5CN5S(C)(=O)=O)[C@@H](CC#N)C4)C3)c12 (stereo partly shown) [Example 131] | + (0 < x ≤ 20) | + (0 < x ≤ 20) |
| CN1CCC[C@H]1COc1nc2c(c(N3CCN(C(=O)[C@@H]4CN4)[C@@H](CC#N)C3)n1)CCN(c1cccc3cccc(Cl)c13)C2 [Example 113, 2-((S)-1-((S)-aziridine-2-carbonyl)-4-(7-(8-chloronaphthalen-1-yl)-2-(((S)-1-methylpyrrolidin-2-yl)methoxy)-5,6,7,8-tetrahydropyrido[3,4-d]pyrimidin-4-yl)piperazin-2-yl)acetonitrile] | + (0 < x ≤ 20) | + (0 < x ≤ 20) |
| Cc1ccnc(C(C)C)c1-n1c(=O)nc(N2[C@H](C)CN(C(=O)[C@@H]3CN3)C[C@@H]2C)c2cc(F)c(-c3c(O)cccc3F)nc21 [Example 140] | 0 | 0 |
| COCC1(N=C=N[C@H]2C[C@H](Nc3nc(OC[C@@H]4CCCN4C)nc4c3CCN(c3cccc5cccc(C)c35)C4)C2)CC1 [Example 152] | +++ (40 < x ≤ 100) | + (0 < x ≤ 20) |
